The source of these data is ChEMBL document CHEMBL3621086, “Synthesis of -brominated phosphonates and their application as phosphate bioisosteres” (Medchemcomm, 2014).

Assay [1] can be described thus: Binding affinity to Yersinia YopH.
Assay [2] addresses T1, Lysophosphatidic acid receptor 3 (Homo sapiens, UniProt Q9UBY5).
T1 sequence (Q9UBY5 whole entry): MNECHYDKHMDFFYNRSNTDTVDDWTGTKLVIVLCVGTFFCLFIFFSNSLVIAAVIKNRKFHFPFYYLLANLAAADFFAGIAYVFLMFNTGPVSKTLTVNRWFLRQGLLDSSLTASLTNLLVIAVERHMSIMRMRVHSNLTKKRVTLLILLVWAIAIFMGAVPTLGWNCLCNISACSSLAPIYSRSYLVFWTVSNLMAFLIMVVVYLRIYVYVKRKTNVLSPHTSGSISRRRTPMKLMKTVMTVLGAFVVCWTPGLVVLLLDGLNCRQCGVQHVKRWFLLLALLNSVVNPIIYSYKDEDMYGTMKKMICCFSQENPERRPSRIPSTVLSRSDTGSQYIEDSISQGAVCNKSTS
The assay is described as follows: Antagonist activity at human LPA3 receptor expressed in […] cells assessed as inhibition of LPA-induced Ca2+ mobilization by FURA-2AM dye based fluorescence assay. The format is functional, cell-based. In general terms: Calcium flux is commonly read through the fluorescence of an indicator in the cells.

The target in assay [3] is Lysophosphatidic acid receptor 1 (Homo sapiens, UniProt Q92633). The assay is described as follows: Antagonist activity at human LPA1 receptor expressed in […] cells assessed as inhibition of LPA-induced Ca2+ mobilization by FURA-2AM dye based fluorescence assay. The format is functional, cell-based.
The target of assay [4] is Lysophosphatidic acid receptor 2 (Homo sapiens, UniProt Q9HBW0). Description: Antagonist activity at human LPA2 receptor expressed in […] cells assessed as inhibition of LPA-induced Ca2+ mobilization by FURA-2AM dye based fluorescence assay. The format is functional, cell-based.
The target in assay [5] is Lysophosphatidic acid receptor 4 (Homo sapiens, UniProt Q99677). The assay is described as follows: Antagonist activity at human LPA4 receptor expressed in CHO cells assessed as inhibition of LPA-induced Ca2+ mobilization by FURA-2AM dye based fluorescence assay. The format is functional, cell-based.
Assay [6] addresses Transient receptor potential cation channel subfamily V member 1 (Homo sapiens, UniProt Q8NER1). Description: Activation of TRPV-1 channel (unknown origin).
Assay [7] addresses T2, Purine nucleoside phosphorylase (Homo sapiens, UniProt P00491).
T2 sequence (P00491 whole entry): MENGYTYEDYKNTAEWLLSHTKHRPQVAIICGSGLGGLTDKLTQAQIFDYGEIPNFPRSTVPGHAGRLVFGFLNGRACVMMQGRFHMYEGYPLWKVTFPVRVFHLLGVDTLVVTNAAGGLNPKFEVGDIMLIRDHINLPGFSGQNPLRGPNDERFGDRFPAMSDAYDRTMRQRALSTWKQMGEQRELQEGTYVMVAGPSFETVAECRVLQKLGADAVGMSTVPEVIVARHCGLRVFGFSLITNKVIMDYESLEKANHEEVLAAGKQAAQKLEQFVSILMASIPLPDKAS
The assay is described as follows: Inhibition of human erythrocyte PNP.

In assay [8] the target is T3, Autotaxin (Homo sapiens, UniProt Q13822). Description: Inhibition of recombinant ATX (unknown origin) assessed as inhibition of hydrolysis of fluoregenic lysoPC analogue FS-3 at 10 uM.
Assay [9] deals with T3, Autotaxin. The assay is described as follows: Inhibition of recombinant ATX (unknown origin) assessed as inhibition of hydrolysis of fluoregenic lysoPC analogue FS-3.
The next assay concerns MDA-MB-231. Description: Inhibition of cell migration in human MDA-MB-231 cells by scratch wound assay. The format is functional.

Lysophosphatidic acid receptor 2, sequence (Q9HBW0 whole entry): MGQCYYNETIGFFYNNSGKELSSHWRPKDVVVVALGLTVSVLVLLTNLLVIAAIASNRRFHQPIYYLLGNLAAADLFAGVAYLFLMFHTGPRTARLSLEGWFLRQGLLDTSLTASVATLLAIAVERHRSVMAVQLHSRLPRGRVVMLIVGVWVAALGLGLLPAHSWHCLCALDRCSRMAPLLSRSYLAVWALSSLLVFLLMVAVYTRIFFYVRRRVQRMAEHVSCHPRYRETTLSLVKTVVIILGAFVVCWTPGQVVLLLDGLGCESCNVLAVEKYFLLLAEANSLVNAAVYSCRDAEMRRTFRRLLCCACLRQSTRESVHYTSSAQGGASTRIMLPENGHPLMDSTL
Lysophosphatidic acid receptor 1, sequence (Q92633 whole entry): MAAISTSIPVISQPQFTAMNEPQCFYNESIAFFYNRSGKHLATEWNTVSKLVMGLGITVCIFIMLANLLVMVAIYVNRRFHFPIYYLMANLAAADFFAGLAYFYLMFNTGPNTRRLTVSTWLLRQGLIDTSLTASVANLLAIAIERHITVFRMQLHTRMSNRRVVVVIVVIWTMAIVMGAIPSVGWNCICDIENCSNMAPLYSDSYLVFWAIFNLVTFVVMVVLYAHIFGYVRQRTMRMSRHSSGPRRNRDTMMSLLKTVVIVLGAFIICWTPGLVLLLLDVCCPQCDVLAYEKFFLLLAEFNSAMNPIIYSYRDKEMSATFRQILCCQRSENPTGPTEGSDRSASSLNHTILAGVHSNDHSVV
Lysophosphatidic acid receptor 4, sequence (Q99677 whole entry): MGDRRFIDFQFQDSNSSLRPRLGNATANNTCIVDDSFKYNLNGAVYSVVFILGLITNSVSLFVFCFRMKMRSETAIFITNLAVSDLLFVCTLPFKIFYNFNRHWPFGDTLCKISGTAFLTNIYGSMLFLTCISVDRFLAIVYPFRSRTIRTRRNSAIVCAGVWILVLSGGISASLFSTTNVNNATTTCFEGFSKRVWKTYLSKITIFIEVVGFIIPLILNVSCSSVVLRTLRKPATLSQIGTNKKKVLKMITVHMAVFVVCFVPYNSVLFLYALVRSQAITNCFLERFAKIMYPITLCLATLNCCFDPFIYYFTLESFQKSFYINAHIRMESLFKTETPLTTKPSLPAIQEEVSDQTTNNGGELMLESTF
Transient receptor potential cation channel subfamily V member 1, sequence (Q8NER1 whole entry): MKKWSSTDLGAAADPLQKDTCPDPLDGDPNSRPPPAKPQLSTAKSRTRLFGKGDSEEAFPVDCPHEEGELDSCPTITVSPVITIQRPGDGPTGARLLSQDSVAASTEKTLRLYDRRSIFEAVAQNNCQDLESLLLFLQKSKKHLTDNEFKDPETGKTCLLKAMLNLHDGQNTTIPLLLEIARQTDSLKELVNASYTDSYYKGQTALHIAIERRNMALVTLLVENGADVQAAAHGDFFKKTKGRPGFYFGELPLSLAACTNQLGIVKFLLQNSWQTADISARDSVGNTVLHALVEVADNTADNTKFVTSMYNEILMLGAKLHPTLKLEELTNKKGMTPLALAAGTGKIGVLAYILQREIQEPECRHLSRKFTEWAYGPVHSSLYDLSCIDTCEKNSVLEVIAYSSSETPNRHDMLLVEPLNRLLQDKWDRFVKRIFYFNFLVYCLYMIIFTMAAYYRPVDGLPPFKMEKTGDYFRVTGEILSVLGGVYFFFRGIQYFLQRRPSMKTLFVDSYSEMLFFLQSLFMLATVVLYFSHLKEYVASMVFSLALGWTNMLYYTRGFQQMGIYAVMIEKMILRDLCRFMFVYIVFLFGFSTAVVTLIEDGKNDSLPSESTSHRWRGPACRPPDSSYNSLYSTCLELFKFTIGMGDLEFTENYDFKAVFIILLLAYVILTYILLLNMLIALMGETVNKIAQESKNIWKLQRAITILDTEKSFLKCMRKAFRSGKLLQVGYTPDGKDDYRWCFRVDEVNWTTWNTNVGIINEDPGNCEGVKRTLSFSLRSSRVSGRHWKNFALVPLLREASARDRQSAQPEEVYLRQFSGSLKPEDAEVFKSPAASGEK

As usually defined, the Ki is the dissociation constant of the complex between target and ligand, obtained from inhibition or displacement. In the case of `CCN(CC)c1ccc2c(-c3ccc(S(=O)(=O)NCc4ccc(C(Br)P(=O)(O)O)cc4)cc3S(=O)(=O)[O-])c3ccc(=[N+](CC)CC)cc-3oc2c1` (configuration not stated), in assay [1], the affinity corresponds to a Ki of 690 µM.
With `CCCCCCCC/C=C\CCCCCCCC(=O)OC[C@@H](O)CC(Br)P(=O)(O)O` (some centres not stated), the Ki in assay [2], in assay [3], in [4] and in assay [5] was 0.17 µM each time.
Usually Kd stands for the constant that tells how readily two partners part at equilibrium. A low value points to higher affinity. The compound `CCCCCCCC/C=C\CCCCCCCC(=O)OC[C@@H](O)COP(=O)(O)O` [LYSOPHOSPHATIDIC ACID] gave a Kd in assay [6] of 0.754 µM.
With `O=P(O)(O)C(Br)c1ccccc1` (configuration not stated), in [1], the Ki turned out to be 4100 µM.
In assay [7], `Nc1nc2c(ncn2CCCCC(F)(F)P(=O)(O)O)c(=O)[nH]1` came in with a Ki of 0.174 µM.
Usually inhibition stands for how much of the control response was suppressed. Turning to `CCCCCCCCCCCCCCCC(=O)OC[C@@H](O)CC(Br)P(=O)(O)O` (mixture of isomers) [listing 1 of 2 here], the inhibition on Autotaxin [8] was found to be 98%.
`O=C(CCCC[C@H]1SC[C@H]2NC(=O)N[C@H]21)NCc1ccc(C(Br)P(=O)(O)O)cc1` (some centres not stated) returned a Ki in assay [1] of 740 µM.
Usually IC50 stands for the concentration that gives 50% inhibition. As for `CCCCCCCCCCCCCCCC(=O)OC[C@@H](O)C[C@@H](Br)P(=O)(O)O`, the IC50 on Autotaxin [9] amounted to 0.165 µM. Also, the inhibition at Autotaxin [8] is 98%. Besides, the “inhibition (INH)” value in the assay with MDA-MB-231 is given as 50%.
In assay [6], `CCCCCCCCCCCCCCCC(=O)OC[C@@H](O)CC(Br)P(=O)(O)O` (mixture of isomers) [listing 2 of 2 here] had a Kd of 1.1 µM.
Take `CCN(CC)c1ccc2c(-c3ccc(S(=O)(=O)[O-])cc3S(=O)(=O)NCc3ccc(C(Br)P(=O)(O)O)cc3)c3ccc(=[N+](CC)CC)cc-3oc2c1` (configuration not stated): the Ki in assay [1] was determined as 690 µM.
For the compound `CCCCCCCCCCCCCCCC(=O)OC[C@@H](O)CC(Br)P(=O)(O)O` (some centres not stated), the Ki in [2], in [3], in [4] and in assay [5] was 0.17 µM each time.
In the case of `CCCCCCCCCCCCCCCC(=O)OC[C@@H](O)C[C@H](Br)P(=O)(O)O`, at Autotaxin [9], the IC50 stood at 0.022 µM. Besides, the inhibition on Autotaxin [8] turned out to be 98%. For the same compound, in the assay with MDA-MB-231, the “inhibition (INH)” value is recorded as 50%.
